Earlier results in patent publication US20250049963A1, “GLYCOSYLATED DENDRIMERS FOR TARGETED INTRACELLULAR DELIVERY” (The Johns Hopkins University, priority 2021, published 2025).

Biological target: T1, GLUT2 (Homo sapiens, UniProt P11168)
T1 sequence (P11168 1-524): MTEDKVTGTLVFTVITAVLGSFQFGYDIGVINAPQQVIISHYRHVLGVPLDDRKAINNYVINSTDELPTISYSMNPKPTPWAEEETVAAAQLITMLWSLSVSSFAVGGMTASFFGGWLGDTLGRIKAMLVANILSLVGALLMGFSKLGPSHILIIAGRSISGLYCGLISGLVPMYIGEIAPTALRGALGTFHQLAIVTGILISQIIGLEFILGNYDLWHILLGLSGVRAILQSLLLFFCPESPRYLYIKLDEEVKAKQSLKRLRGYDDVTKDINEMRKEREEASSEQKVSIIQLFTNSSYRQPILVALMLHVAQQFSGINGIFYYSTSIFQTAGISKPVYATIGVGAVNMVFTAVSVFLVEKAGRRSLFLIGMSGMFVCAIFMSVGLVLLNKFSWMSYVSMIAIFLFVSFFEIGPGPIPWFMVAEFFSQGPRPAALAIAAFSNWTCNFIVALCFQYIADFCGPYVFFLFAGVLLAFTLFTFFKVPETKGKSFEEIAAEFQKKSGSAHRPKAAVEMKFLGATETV
Settings: cited from earlier work

## NC1C(O)[C@H](O)C(CO)O[C@@H]1O (stereo partly shown) [GlcN, glucosamine]
  affinity of GLUT2 for GlcN relative to glucose: ~20 fold
